# Reference: patent US6479525B2, “Aspartate derivative of amlodipine” (Synthon BV, priority 2000, dated 2002)
# Test system: isolated heart tissue
# Test: reduction of calcium-induced contraction of isolated heart tissue in vitro (calcium channel blocking activity)
# Details: degree of reduction of contraction of an isolated heart tissue induced by an addition of calcium ions in vitro
compound,measurement,value
"CCOC(=O)C1=C(COCCN[C@@H](CC(=O)O)C(=O)O)NC(C)=C(C(=O)OC)C1c1ccccc1Cl (stereo partly shown) [Compound of formula (1), N-(2-{[4-(2-chlorophenyl)-3-(ethoxycarbonyl)-5-(methoxycarbonyl)-6-methyl-1,4-dihydro-2-pyridinyl]methoxy}ethyl)aspartic acid]",calcium channel blocking activity (ability to inhibit the movement of calcium into a cell),has been shown
